Measured values from ChEMBL document CHEMBL2016565, “Cellular uptake of covalent conjugates of oligonucleotide with membrane-modifying peptide, peptaibol” (Bioorg Med Chem, 2012).
The source made the active and inactive calls. No cut-off for these calls is given here.

Columns and labels:
A549 [1] = test: Drug uptake in human A549 cells after 24 hrs by confocal laser-scanning microscopy; type: ADME, cell-based; settings: a549, 24 h
A549 [2] = test: Drug uptake in human A549 cells at 1 to 4 uM by confocal laser-scanning microscopy; type: ADME, cell-based; settings: a549, 4 µM
A549 [3] = test: Antisense activity in human A549 cells assessed as down regulation of p53 protein at 5 uM incubated for 8 hrs in serum-free medium followed by 24 hrs incubation in serum-containing medium by Western blotting analysis; type: functional
A549 [4] = test: Drug uptake in human A549 cells assessed as increase in fluorescence intensity at 1 uM after 24 hrs by fluorescence analysis using fluorescein labelled compound relative to oligonucleotide treated control; type: ADME, cell-based; settings: a549, 24 h
A549 [5] = test: Drug uptake in human A549 cells assessed as increase in fluorescence intensity at 1 uM after 2 hrs by fluorescence analysis using fluorescein labelled compound relative to oligonucleotide treated control; type: ADME, cell-based; settings: a549, 2 h
A549 [6] = test: Drug uptake in human A549 cells assessed as increase in fluorescence intensity at 1 uM after 8 hrs by fluorescence analysis using fluorescein labelled compound relative to oligonucleotide treated control; type: ADME, cell-based; settings: a549, 8 h
A549 [7] = test: Antisense activity in human A549 cells assessed as down regulation of p53 protein at 1 uM incubated for 8 hrs in serum-free medium followed by 24 hrs incubation in serum-containing medium by Western blotting analysis; type: functional, cell-based
A549 [8] = test: Cytotoxicity against human A549 cells assessed as cytoplasmic LDH release at 5 uM after 2 to 24 hrs by spectrophotometry; type: cell-based; settings: a549, 5 µM
A549 [9] = test: Drug uptake in human A549 cells assessed as increase in fluorescence intensity at 1 uM after 24 hrs by fluorescence analysis relative to control; type: ADME, cell-based; settings: a549, 24 h

Row | Drug uptake (A549 [1]) | Drug uptake (A549 [2]; TDE = time-dependent effect) | fold change (FC) (A549 [4]) | fold change (FC) (A549 [5]) | fold change (FC) (A549 [6]) | Drug uptake (A549 [9]) | Drug uptake (A549 [2]) | Structure (SMILES) | Activity (A549 [3]) [%] | Activity (A549 [7]) | Activity (A549 [8])
1 | Dose-dependent effect | tde | 14 | 4 | 7 | – | – | CC[C@H](C)[C@H](NC(=O)[C@H](CC(N)=O)NC(=O)C(C)(C)NC(C)=O)C(=O)N[C@H](C(=O)NC(C)(C)C(=O)N1CCC[C@H]1C(=O)N[C@@H](CC(C)C)C(=O)N[C@@H](CC(C)C)C(=O)NC(C)(C)C(=O)N1CCC[C@H]1C(=O)N[C@H](C(=O)N[C@@H](CSC1CC(=O)N(CCCCCC(=O)NCCCCCCOP(=O)(O)OC[C@H]2O[C@@H](n3ccc(N)nc3=O)C[C@@H]2OP(O)(=S)OC[C@H]2O[C@@H](n3ccc(N)nc3=O)C[C@@H]2OP(O)(=S)OC[C@H]2O[C@@H](n3ccc(N)nc3=O)C[C@@H]2OP(O)(=S)OC[C@H]2O[C@@H](n3cc(C)c(=O)[nH]c3=O)C[C@@H]2OP(O)(=S)OC[C@H]2O[C@@H](n3cnc4c(=O)[nH]c(N)nc43)C[C@@H]2OP(O)(=S)OC[C@H]2O[C@@H](n3ccc(N)nc3=O)C[C@@H]2OP(O)(=S)OC[C@H]2O[C@@H](n3cc(C)c(=O)[nH]c3=O)C[C@@H]2OP(O)(=S)OC[C@H]2O[C@@H](n3ccc(N)nc3=O)C[C@@H]2OP(O)(=S)OC[C@H]2O[C@@H](n3ccc(N)nc3=O)C[C@@H]2OP(O)(=S)OC[C@H]2O[C@@H](n3ccc(N)nc3=O)C[C@@H]2OP(O)(=S)OC[C@H]2O[C@@H](n3ccc(N)nc3=O)C[C@@H]2OP(O)(=S)OC[C@H]2O[C@@H](n3ccc(N)nc3=O)C[C@@H]2OP(O)(=S)OC[C@H]2O[C@@H](n3ccc(N)nc3=O)C[C@@H]2OP(O)(=S)OC[C@H]2O[C@@H](n3cc(C)c(=O)[nH]c3=O)C[C@@H]2OP(O)(=S)OC[C@H]2O[C@@H](n3cnc4c(=O)[nH]c(N)nc43)C[C@@H]2OP(O)(=S)OC[C@H]2O[C@@H](n3cnc4c(=O)[nH]c(N)nc43)C[C@@H]2OP(O)(=S)OC[C@H]2O[C@@H](n3ccc(N)nc3=O)C[C@@H]2OP(O)(=S)OC[C@H]2O[C@@H](n3cc(C)c(=O)[nH]c3=O)C[C@@H]2OP(O)(=S)OC[C@H]2O[C@@H](n3ccc(N)nc3=O)C[C@@H]2OP(O)(=S)OC[C@H]2O[C@@H](n3ccc(N)nc3=O)C[C@@H]2O)C1=O)C(N)=O)[C@@H](C)CC)[C@@H](C)CC (some centres undefined) | 50 | inactive | Non-toxic
2 | – | – | – | – | – | Not Active | – | CC[C@H](C)[C@H](NC(=O)[C@H](CC(N)=O)NC(=O)C(C)(C)NC(C)=O)C(=O)N[C@H](C(=O)NC(C)(C)C(=O)N1CCC[C@H]1C(=O)N[C@@H](CC(C)C)C(=O)N[C@@H](CC(C)C)C(=O)NC(C)(C)C(=O)N1CCC[C@H]1C(=O)N[C@H](C(=O)N[C@@H](CSC1CC(=O)N(CCCCCC(=O)NCCCCCCOP(=O)(O)OC[C@H]2O[C@@H](n3cnc4c(=O)[nH]c(N)nc43)C[C@@H]2OP(O)(=S)OC[C@H]2O[C@@H](n3cnc4c(=O)[nH]c(N)nc43)C[C@@H]2OP(O)(=S)OC[C@H]2O[C@@H](n3cnc4c(N)ncnc43)C[C@@H]2OP(O)(=S)OC[C@H]2O[C@@H](n3cnc4c(=O)[nH]c(N)nc43)C[C@@H]2OP(O)(=S)OC[C@H]2O[C@@H](n3ccc(N)nc3=O)C[C@@H]2OP(O)(=S)OC[C@H]2O[C@@H](n3ccc(N)nc3=O)C[C@@H]2OP(O)(=S)OC[C@H]2O[C@@H](n3cnc4c(N)ncnc43)C[C@@H]2OP(O)(=S)OC[C@H]2O[C@@H](n3cnc4c(=O)[nH]c(N)nc43)C[C@@H]2OP(O)(=S)OC[C@H]2O[C@@H](n3cnc4c(=O)[nH]c(N)nc43)C[C@@H]2OP(O)(=S)OC[C@H]2O[C@@H](n3cnc4c(=O)[nH]c(N)nc43)C[C@@H]2OP(O)(=S)OC[C@H]2O[C@@H](n3cnc4c(=O)[nH]c(N)nc43)C[C@@H]2OP(O)(=S)OC[C@H]2O[C@@H](n3cnc4c(=O)[nH]c(N)nc43)C[C@@H]2OP(O)(=S)OC[C@H]2O[C@@H](n3cnc4c(=O)[nH]c(N)nc43)C[C@@H]2OP(O)(=S)OC[C@H]2O[C@@H](n3cnc4c(N)ncnc43)C[C@@H]2OP(O)(=S)OC[C@H]2O[C@@H](n3cnc4c(=O)[nH]c(N)nc43)C[C@@H]2OP(O)(=S)OC[C@H]2O[C@@H](n3ccc(N)nc3=O)C[C@@H]2OP(O)(=S)OC[C@H]2O[C@@H](n3cnc4c(N)ncnc43)C[C@@H]2OP(O)(=S)OC[C@H]2O[C@@H](n3cnc4c(=O)[nH]c(N)nc43)C[C@@H]2OP(O)(=S)OC[C@H]2O[C@@H](n3cnc4c(=O)[nH]c(N)nc43)C[C@@H]2OP(O)(=S)OC[C@H]2O[C@@H](n3cnc4c(=O)[nH]c(N)nc43)C[C@@H]2O)C1=O)C(N)=O)[C@@H](C)CC)[C@@H](C)CC (some centres undefined) | – | – | –
3 | Not Active | – | – | – | – | – | Not Active | Nc1ccn([C@H]2C[C@H](OP(O)(=S)OC[C@H]3O[C@@H](n4cnc5c(N)ncnc54)C[C@@H]3OP(O)(=S)OC[C@H]3O[C@@H](n4cnc5c(=O)[nH]c(N)nc54)C[C@@H]3OP(O)(=S)OC[C@H]3O[C@@H](n4cnc5c(=O)[nH]c(N)nc54)C[C@@H]3OP(O)(=S)OC[C@H]3O[C@@H](n4cnc5c(=O)[nH]c(N)nc54)C[C@@H]3OP(O)(=S)OC[C@H]3O[C@@H](n4cnc5c(=O)[nH]c(N)nc54)C[C@@H]3OP(O)(=S)OC[C@H]3O[C@@H](n4cnc5c(=O)[nH]c(N)nc54)C[C@@H]3OP(O)(=S)OC[C@H]3O[C@@H](n4cnc5c(=O)[nH]c(N)nc54)C[C@@H]3OP(O)(=S)OC[C@H]3O[C@@H](n4cnc5c(N)ncnc54)C[C@@H]3OP(O)(=S)OC[C@H]3O[C@@H](n4cnc5c(=O)[nH]c(N)nc54)C[C@@H]3OP(O)(=S)OC[C@H]3O[C@@H](n4ccc(N)nc4=O)C[C@@H]3OP(O)(=S)OC[C@H]3O[C@@H](n4cnc5c(N)ncnc54)C[C@@H]3OP(O)(=S)OC[C@H]3O[C@@H](n4cnc5c(=O)[nH]c(N)nc54)C[C@@H]3OP(O)(=S)OC[C@H]3O[C@@H](n4cnc5c(=O)[nH]c(N)nc54)C[C@@H]3OP(O)(=S)OC[C@H]3O[C@@H](n4cnc5c(=O)[nH]c(N)nc54)C[C@@H]3O)[C@@H](COP(O)(=S)O[C@H]3C[C@H](n4ccc(N)nc4=O)O[C@@H]3COP(O)(=S)O[C@H]3C[C@H](n4cnc5c(=O)[nH]c(N)nc54)O[C@@H]3COP(O)(=S)O[C@H]3C[C@H](n4cnc5c(N)ncnc54)O[C@@H]3COP(O)(=S)O[C@H]3C[C@H](n4cnc5c(=O)[nH]c(N)nc54)O[C@@H]3COP(O)(=S)O[C@H]3C[C@H](n4cnc5c(=O)[nH]c(N)nc54)O[C@@H]3CO)O2)c(=O)n1 (some centres undefined) | – | – | –
4 | – | – | – | – | – | – | – | CC[C@H](C)[C@H](NC(=O)[C@H](CC(N)=O)NC(=O)C(C)(C)NC(C)=O)C(=O)N[C@H](C(=O)NC(C)(C)C(=O)N1CCC[C@H]1C(=O)N[C@@H](CC(C)C)C(=O)N[C@@H](CC(C)C)C(=O)NC(C)(C)C(=O)N1CCC[C@H]1C(=O)N[C@H](C(=O)N[C@@H](CSSCCCCCCOP(=O)(O)OC[C@H]1O[C@@H](n2ccc(N)nc2=O)C[C@@H]1OP(O)(=S)OC[C@H]1O[C@@H](n2ccc(N)nc2=O)C[C@@H]1OP(O)(=S)OC[C@H]1O[C@@H](n2ccc(N)nc2=O)C[C@@H]1OP(O)(=S)OC[C@H]1O[C@@H](n2cc(C)c(=O)[nH]c2=O)C[C@@H]1OP(O)(=S)OC[C@H]1O[C@@H](n2cnc3c(=O)[nH]c(N)nc32)C[C@@H]1OP(O)(=S)OC[C@H]1O[C@@H](n2ccc(N)nc2=O)C[C@@H]1OP(O)(=S)OC[C@H]1O[C@@H](n2cc(C)c(=O)[nH]c2=O)C[C@@H]1OP(O)(=S)OC[C@H]1O[C@@H](n2ccc(N)nc2=O)C[C@@H]1OP(O)(=S)OC[C@H]1O[C@@H](n2ccc(N)nc2=O)C[C@@H]1OP(O)(=S)OC[C@H]1O[C@@H](n2ccc(N)nc2=O)C[C@@H]1OP(O)(=S)OC[C@H]1O[C@@H](n2ccc(N)nc2=O)C[C@@H]1OP(O)(=S)OC[C@H]1O[C@@H](n2ccc(N)nc2=O)C[C@@H]1OP(O)(=S)OC[C@H]1O[C@@H](n2ccc(N)nc2=O)C[C@@H]1OP(O)(=S)OC[C@H]1O[C@@H](n2cc(C)c(=O)[nH]c2=O)C[C@@H]1OP(O)(=S)OC[C@H]1O[C@@H](n2cnc3c(=O)[nH]c(N)nc32)C[C@@H]1OP(O)(=S)OC[C@H]1O[C@@H](n2cnc3c(=O)[nH]c(N)nc32)C[C@@H]1OP(O)(=S)OC[C@H]1O[C@@H](n2ccc(N)nc2=O)C[C@@H]1OP(O)(=S)OC[C@H]1O[C@@H](n2cc(C)c(=O)[nH]c2=O)C[C@@H]1OP(O)(=S)OC[C@H]1O[C@@H](n2ccc(N)nc2=O)C[C@@H]1OP(O)(=S)OC[C@H]1O[C@@H](n2ccc(N)nc2=O)C[C@@H]1O)C(N)=O)[C@@H](C)CC)[C@@H](C)CC (some centres undefined) | 20 | inactive | Non-toxic
